Columns and labels:
AR / CBP ternary complex = AR / CBP ternary complex (Homo sapiens, UniProt P10275+Q92793); assay: Ternary complex formation assay (sandwich ELISA, AR capture, CBP antibody detection) in VCaP cell lysates; format: cell-based; settings: treated 1.5 hours, rabbit CBP or p300 antibody detection, average, read-out: Average Ternary Complex
Method in brief: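 Sandwich ELISA: plates were coated with anti-AR antibody (AR441) and given lysates of VCaP cells treated 1.5 h with bifunctional compound in charcoal-stripped serum. Co-captured CBP or p300 was probed with rabbit mAbs and HRP secondary. Chemifluorescent signal (ex 570/em 585) was read at 0, 5 and 15 min.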

VCaP cells = assay: VCaP growth inhibition assay (CTG); format: cell-based; settings: Homo sapiens, 216 h, 30 pM R1881, 9 days
Method in brief: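 Growth was measured by CTG luminescence after a 9-day exposure of VCaP cells to compound (final 10 fM–100 nM, fivefold steps) in the presence of 30 pM final R1881, in phenol red-free DMEM/5% CSS. IC50 values were derived by nonlinear 4-parameter regression of RLU against concentration.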

AR / CBP ternary complex, sequence (P10275 whole entry): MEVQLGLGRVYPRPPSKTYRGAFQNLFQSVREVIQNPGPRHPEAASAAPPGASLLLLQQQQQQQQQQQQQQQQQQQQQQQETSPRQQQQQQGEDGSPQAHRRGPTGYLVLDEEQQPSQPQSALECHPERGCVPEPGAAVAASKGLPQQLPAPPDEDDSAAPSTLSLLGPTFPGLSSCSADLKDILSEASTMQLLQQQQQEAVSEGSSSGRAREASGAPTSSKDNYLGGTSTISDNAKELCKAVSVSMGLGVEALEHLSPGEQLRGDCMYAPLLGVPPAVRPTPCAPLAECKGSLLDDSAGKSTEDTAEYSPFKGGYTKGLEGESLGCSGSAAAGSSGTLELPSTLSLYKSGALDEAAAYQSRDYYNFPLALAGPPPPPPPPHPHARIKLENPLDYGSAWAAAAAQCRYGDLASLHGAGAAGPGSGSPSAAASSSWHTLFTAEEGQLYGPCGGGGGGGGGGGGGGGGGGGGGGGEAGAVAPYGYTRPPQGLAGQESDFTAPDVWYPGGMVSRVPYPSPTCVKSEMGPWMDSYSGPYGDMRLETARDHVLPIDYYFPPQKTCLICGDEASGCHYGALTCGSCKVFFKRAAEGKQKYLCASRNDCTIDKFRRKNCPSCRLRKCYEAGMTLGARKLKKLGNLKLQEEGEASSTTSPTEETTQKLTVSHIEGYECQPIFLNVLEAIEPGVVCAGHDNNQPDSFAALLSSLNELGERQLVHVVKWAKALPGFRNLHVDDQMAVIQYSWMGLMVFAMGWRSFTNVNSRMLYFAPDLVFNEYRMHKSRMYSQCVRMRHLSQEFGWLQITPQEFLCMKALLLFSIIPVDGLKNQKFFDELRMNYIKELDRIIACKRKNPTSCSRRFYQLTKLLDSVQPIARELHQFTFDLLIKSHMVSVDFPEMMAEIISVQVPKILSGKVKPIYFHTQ
AR / CBP ternary complex, sequence (Q92793 2-2442): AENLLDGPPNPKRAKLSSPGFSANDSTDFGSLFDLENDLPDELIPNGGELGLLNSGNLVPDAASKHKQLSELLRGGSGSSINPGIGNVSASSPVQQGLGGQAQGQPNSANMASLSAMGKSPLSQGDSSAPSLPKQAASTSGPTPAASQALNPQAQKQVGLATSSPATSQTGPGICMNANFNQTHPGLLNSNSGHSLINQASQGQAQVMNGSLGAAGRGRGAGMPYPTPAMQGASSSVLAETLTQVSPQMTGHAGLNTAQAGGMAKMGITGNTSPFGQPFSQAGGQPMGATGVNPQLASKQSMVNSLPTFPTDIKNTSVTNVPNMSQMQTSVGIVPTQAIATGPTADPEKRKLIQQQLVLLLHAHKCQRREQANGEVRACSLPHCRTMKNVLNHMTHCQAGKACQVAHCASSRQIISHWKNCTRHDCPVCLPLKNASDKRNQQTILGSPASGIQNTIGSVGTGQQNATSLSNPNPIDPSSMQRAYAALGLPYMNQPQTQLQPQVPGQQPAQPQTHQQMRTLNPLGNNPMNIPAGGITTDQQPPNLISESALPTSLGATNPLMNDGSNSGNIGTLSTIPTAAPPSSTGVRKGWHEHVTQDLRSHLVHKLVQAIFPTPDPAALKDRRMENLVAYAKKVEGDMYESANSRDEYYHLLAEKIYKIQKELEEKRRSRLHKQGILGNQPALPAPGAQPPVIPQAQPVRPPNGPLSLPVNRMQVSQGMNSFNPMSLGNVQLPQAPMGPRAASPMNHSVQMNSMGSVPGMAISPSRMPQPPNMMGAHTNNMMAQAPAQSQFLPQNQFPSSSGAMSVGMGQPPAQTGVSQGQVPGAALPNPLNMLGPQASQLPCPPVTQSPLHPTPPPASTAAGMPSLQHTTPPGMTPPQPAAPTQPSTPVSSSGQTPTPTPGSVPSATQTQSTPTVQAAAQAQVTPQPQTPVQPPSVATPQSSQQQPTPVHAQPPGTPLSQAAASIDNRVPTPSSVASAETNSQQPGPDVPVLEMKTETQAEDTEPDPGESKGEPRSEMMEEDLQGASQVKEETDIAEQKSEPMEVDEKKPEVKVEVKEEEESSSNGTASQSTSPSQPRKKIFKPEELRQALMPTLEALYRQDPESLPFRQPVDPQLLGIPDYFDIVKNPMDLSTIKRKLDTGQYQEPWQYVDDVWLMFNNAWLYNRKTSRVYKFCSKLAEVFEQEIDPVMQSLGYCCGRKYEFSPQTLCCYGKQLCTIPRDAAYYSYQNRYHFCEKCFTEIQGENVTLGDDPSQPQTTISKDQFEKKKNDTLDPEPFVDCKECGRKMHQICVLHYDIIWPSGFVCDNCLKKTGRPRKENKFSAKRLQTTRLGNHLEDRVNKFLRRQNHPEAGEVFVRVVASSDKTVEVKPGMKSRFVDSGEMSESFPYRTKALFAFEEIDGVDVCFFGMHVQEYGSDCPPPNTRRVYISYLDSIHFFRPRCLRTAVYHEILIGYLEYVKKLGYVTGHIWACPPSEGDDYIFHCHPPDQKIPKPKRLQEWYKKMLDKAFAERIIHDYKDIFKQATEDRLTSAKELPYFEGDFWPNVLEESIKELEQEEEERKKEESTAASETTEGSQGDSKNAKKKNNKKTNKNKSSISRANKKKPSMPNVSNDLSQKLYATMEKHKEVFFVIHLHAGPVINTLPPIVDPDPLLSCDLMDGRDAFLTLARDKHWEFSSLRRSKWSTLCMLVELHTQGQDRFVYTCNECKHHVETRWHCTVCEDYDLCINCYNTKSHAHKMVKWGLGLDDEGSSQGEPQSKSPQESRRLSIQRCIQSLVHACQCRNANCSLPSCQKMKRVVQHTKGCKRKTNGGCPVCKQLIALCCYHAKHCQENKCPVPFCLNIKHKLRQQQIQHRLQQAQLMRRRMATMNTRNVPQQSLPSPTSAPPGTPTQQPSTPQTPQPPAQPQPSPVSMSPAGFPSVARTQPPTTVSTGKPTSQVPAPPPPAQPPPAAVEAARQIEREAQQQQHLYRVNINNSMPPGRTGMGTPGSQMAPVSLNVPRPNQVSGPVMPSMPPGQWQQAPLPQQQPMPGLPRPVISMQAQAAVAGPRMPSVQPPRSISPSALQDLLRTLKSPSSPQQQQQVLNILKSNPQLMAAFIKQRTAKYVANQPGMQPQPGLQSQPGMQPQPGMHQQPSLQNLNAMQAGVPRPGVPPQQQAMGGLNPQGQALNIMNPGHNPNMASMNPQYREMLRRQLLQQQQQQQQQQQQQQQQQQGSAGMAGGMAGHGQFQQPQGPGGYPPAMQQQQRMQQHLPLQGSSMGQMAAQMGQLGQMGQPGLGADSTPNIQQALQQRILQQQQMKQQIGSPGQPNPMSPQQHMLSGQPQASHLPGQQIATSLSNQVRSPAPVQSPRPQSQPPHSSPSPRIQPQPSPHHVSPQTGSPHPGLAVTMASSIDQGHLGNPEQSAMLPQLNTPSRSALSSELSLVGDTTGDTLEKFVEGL

SMILES	EC50 (AR / CBP ternary complex)	IC50 (VCaP cells)
CC(=O)N1CCc2c(c(N3CCCc4cc(-c5cnn(C)c5)c(C(F)F)cc43)nn2[C@H]2CC[C@]3(CCN(C4CN(c5ccc(C(=O)N[C@H]6CC[C@H](Oc7ccc(C#N)c(Cl)c7)CC6)nn5)C4)C3)CC2)C1 [Compound 262, 6-[3-[8-[5-acetyl-3-[7-(difluoromethyl)-6-(1-methylpyrazol-4-yl)-3,4-dihydro-2H-quinolin-1-yl]-6,7-dihydro-4H-pyrazolo[4,3-c]pyridin-1-yl]-2-azaspiro[4.5]decan-2-yl]azetidin-1-yl]-N-[4-(3-chloro-4-cyano-phenoxy)cyclohexyl]pyridazine-3-carboxamide]	< 1 nM	0.1 to 1 nM
CC(=O)N1CCc2c(c(N3CCCc4cc(-c5cnn(C)c5)c(C(F)F)cc43)nn2[C@H]2CC[C@@]3(CCN(C4CN(c5ccc(C(=O)N[C@H]6CC[C@H](Oc7ccc(C#N)c(Cl)c7)CC6)nn5)C4)C3)CC2)C1 [Compound 263, 6-[3-[8-[5-acetyl-3-[7-(difluoromethyl)-6-(1-methylpyrazol-4-yl)-3,4-dihydro-2H-quinolin-1-yl]-6,7-dihydro-4H-pyrazolo[4,3-c]pyridin-1-yl]-2-azaspiro[4.5]decan-2-yl]azetidin-1-yl]-N-[4-(3-chloro-4-cyano-phenoxy)cyclohexyl]pyridazine-3-carboxamide]	< 1 nM	≤ 0.1 nM
CC(=O)N1CCc2c(c(N3CCCc4cc(-c5cnn(C)c5)c(C(F)F)cc43)nn2[C@H]2CC[C@@]3(CCCN(c4ccc(C(=O)N[C@H]5CC[C@H](Oc6ccc(C#N)c(Cl)c6)CC5)nn4)C3)CC2)C1 [Compound 267, 6-[9-[5-acetyl-3-[7-(difluoromethyl)-6-(1-methylpyrazol-4-yl)-3,4-dihydro-2H-quinolin-1-yl]-6,7-dihydro-4H-pyrazolo[4,3-c]pyridin-1-yl]-2-azaspiro[5.5]undecan-2-yl]-N-[4-(3-chloro-4-cyano-phenoxy)cyclohexyl]pyridazine-3-carboxamide]	< 1 nM	1 to 100 nM
CC(=O)N1CCc2c(c(N3CCCc4cc(-c5cnn(C)c5)c(C(F)F)cc43)nn2[C@H]2CC[C@]3(CCCN(C4CN(c5ccc(C(=O)N[C@H]6CC[C@H](Oc7ccc(C#N)c(Cl)c7)CC6)nn5)C4)C3)CC2)C1 [Compound 268, 6-[3-[9-[5-acetyl-3-[7-(difluoromethyl)-6-(1-methylpyrazol-4-yl)-3,4-dihydro-2H-quinolin-1-yl]-6,7-dihydro-4Hpyrazolo[4,3-c]pyridin-1-yl]-2-azaspiro[5.5]undecan-2-yl]azetidin-1-yl]-N-[4-(3-chloro-4-cyanophenoxy)cyclohexyl]pyridazine-3-carboxamide]	< 1 nM	0.1 to 1 nM
COC(=O)N1c2ccc3c(nc(Cc4ccccc4)n3[C@@H]3CCC[C@H](OCCN4CCN(c5ccc(C(=O)N[C@H]6CC[C@H](Oc7ccc(C#N)c(Cl)c7)CC6)nn5)CC4)C3)c2CC[C@@H]1C [Compound 270, methyl (7S)-2-benzyl-3-[3-[2-[4-[6-[[4-(3-chloro-4-cyano-phenoxy)cyclohexyl]carbamoyl]pyridazin-3-yl]piperazin-1-yl]ethoxy]cyclohexyl]-7-methyl-8,9-dihydro-7H-imidazo[4,5-f]quinoline-6-carboxylate]	1 to 10 nM	1 to 100 nM
CC(=O)N1CCc2c(c(-c3cccc4cc(-c5cnn(C)c5)ncc34)nn2C2CCN(CC3CCN(c4ccc(C(=O)N[C@H]5CC[C@H](Oc6ccc(C#N)c(Cl)c6)CC5)nn4)CC3(C)C)CC2)C1 (stereo partly drawn) [Compound 280]	< 1 nM	≤ 0.1 nM
CC(=O)N1CCc2c(c(N3CCCc4cc(-c5cnn(C)c5)c(C)cc43)nn2C2CCN(C[C@H]3[C@H](C)CN(c4ccc(C(=O)N[C@H]5CC[C@H](Oc6ccc(C#N)c(Cl)c6)CC5)nn4)C[C@@H]3C)CC2)C1 [Compound 281]	< 1 nM	≤ 0.1 nM
CC(=O)N1CCc2c(c(N3CCCc4cc(C#N)c(C(F)F)cc43)nn2C2CCN(CC3CCN(c4ccc(C(=O)N[C@H]5CC[C@H](Oc6ccc(C#N)c(Cl)c6)CC5)nn4)CC3(C)C)CC2)C1 (stereo partly drawn) [Compound 283, 6-[4-[[4-[5-acetyl-3-[6-cyano-7-(difluoromethyl)-3,4-dihydro-2H-quinolin-1-yl]-6,7-dihydro-4H-pyrazolo[4,3-c]pyridin-1-yl]-1-piperidyl]methyl]-3,3-dimethyl-1-piperidyl]-N-[4-(3-chloro-4-cyano-phenoxy)cyclohexyl]pyridazine-3-carboxamide]	< 1 nM	≤ 0.1 nM

The remaining lines, values ahead:

EC50 (AR / CBP ternary complex)	IC50 (VCaP cells)	SMILES
1 to 10 nM	1 to 100 nM	CC(=O)N1CCc2c(c(N3CCCc4cc(-c5cnn(C)c5)c(C(F)F)cc43)nn2C2CCN([C@H]3CCCN(c4ccc(C(=O)N[C@H]5CC[C@H](Oc6ccc(C#N)c(Cl)c6)CC5)nn4)C3)CC2)C1 [Compound 258, 6-[(3S)-3-[4-[5-acetyl-3-[7-(difluoromethyl)-6-(1-methylpyrazol-4-yl)-3,4-dihydro-2H-quinolin-1-yl]-6,7-dihydro-4H-pyrazolo[4,3-c]pyridin-1-yl]-1-piperidyl]-1-piperidyl]-N-[4-(3-chloro-4-cyano-phenoxy)cyclohexyl]pyridazine-3-carboxamide]
1 to 10 nM	1 to 100 nM	CC(=O)N1CCc2c(c(N3CCCc4cc(-c5cnn(C)c5)c(C(F)F)cc43)nn2C2CCN([C@@H]3CCCN(c4ccc(C(=O)N[C@H]5CC[C@H](Oc6ccc(C#N)c(Cl)c6)CC5)nn4)C3)CC2)C1 [Compound 259, 6-[(3R)-3-[4-[5-acetyl-3-[7-(difluoromethyl)-6-(1-methylpyrazol-4-yl)-3,4-dihydro-2H-quinolin-1-yl]-6,7-dihydro-4H-pyrazolo[4,3-c]pyridin-1-yl]-1-piperidyl]-1-piperidyl]-N-[4-(3-chloro-4-cyano-phenoxy)cyclohexyl]pyridazine-3-carboxamide]
1 to 10 nM	1 to 100 nM	CC(=O)N1CCc2c(c(N3CCCc4cc(-c5cscn5)c(C(F)F)cc43)nn2C2CCN([C@@H]3CCCN(c4ccc(C(=O)N[C@H]5CC[C@H](Oc6ccc(C#N)c(Cl)c6)CC5)nn4)C3)CC2)C1 [Compound 261, 6-[(3R)-3-[4-[5-acetyl-3-[7-(difluoromethyl)-6-thiazol-4-yl-3,4-dihydro-2H-quinolin-1-yl]-6,7-dihydro-4H-pyrazolo[4,3-c]pyridin-1-yl]-1-piperidyl]-1-piperidyl]-N-[4-(3-chloro-4-cyano-phenoxy)cyclohexyl]pyridazine-3-carboxamide]
< 1 nM	0.1 to 1 nM	CC(=O)N1CCc2c(c(N3CCCc4cc(-c5cnn(C)c5)c(C)cc43)nn2C2CCN(CC3CCN(c4ccc(C(=O)N[C@H]5CC[C@H](Oc6ccc(C#N)c(Cl)c6)CC5)nn4)CC3(C)C)CC2)C1 (stereo partly drawn) [Compound 282, 6-[4-[[4-[5-acetyl-3-[7-methyl-6-(1-methylpyrazol-4-yl)-3,4-dihydro-2H-quinolin-1-yl]-6,7-dihydro-4H-pyrazolo[4,3-c]pyridin-1-yl]-1-piperidyl]methyl]-3,3-dimethyl-1-piperidyl]-N-[4-(3-chloro-4-cyano-phenoxy)cyclohexyl]pyridazine-3-carboxamide]

From patent US20250136578A1 (Kolm Therapeutics Inc., priority 2023, published 2025)
